According to ChEMBL document CHEMBL1201862, “PubChem BioAssay data set” (2004):
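48-hour exposure; five concentrations; linearly interpolated endpoints. GI50 = concentration required for 50% inhibition of growth.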 Calls of active or inactive are those of the source. Cut-off read from the data, not from the text of the source: active = GI50 up to about 1.1 µM and inactive = higher.

Legend:
Test in all cases: NCI anticancer screen, dose series, 48 h
CAKI-1 = test system: CAKI-1
CCRF-CEM = test system: CCRF-CEM
HCT-116 = test system: HCT-116
HOP-62 = test system: HOP-62
HOP-92 = test system: HOP-92
KM12 = test system: KM12
MCF7 = test system: MCF7
MOLT-4 = test system: MOLT-4
Malme-3M = test system: Malme-3M
NCI-H226 = test system: NCI-H226
NCI-H460 = test system: NCI-H460
OVCAR-3 = test system: OVCAR-3
OVCAR-5 = test system: OVCAR-5
SK-MEL-5 = test system: SK-MEL-5
TK-10 = test system: TK-10
UACC-62 = test system: UACC-62
UO-31 = test system: UO-31
SNB-75 = test system: SNB-75
T47D = test system: T47D
DU-145 = test system: DU-145

SMILES	GI50 (CAKI-1)	GI50 (CCRF-CEM)	GI50 (HCT-116)	GI50 (HOP-62)	GI50 (HOP-92)	GI50 (KM12)	GI50 (MCF7)	GI50 (MOLT-4)	GI50 (Malme-3M)	GI50 (NCI-H226)	GI50 (NCI-H460)	GI50 (OVCAR-3)	GI50 (OVCAR-5)	GI50 (SK-MEL-5)	GI50 (TK-10)	GI50 (UACC-62)	GI50 (UO-31)	GI50 (SNB-75)	GI50 (T47D)	GI50 (DU-145)
CN(CCCNC(=O)c1cn(C)c2c1Cc1ccccc1-2)CCCNC(=O)c1cn(C)c2c1Cc1ccccc1-2	14.9 µM (inactive)	2.74 µM (inactive)	9.33 µM (inactive)	12.9 µM (inactive)	2.13 µM (inactive)	13 µM (inactive)	10.2 µM (inactive)	3.35 µM (inactive)	11.7 µM (inactive)	17.2 µM (inactive)	8.89 µM (inactive)	15.6 µM (inactive)	15.6 µM (inactive)	14.2 µM (inactive)	11.6 µM (inactive)	13.8 µM (inactive)	9.16 µM (inactive)			
CN(C)c1[se]nc2c1c(=O)n(C)c(=O)n2C	> 100 µM (inactive)	> 100 µM (inactive)	> 100 µM (inactive)	> 100 µM (inactive)	> 100 µM (inactive)	> 100 µM (inactive)		> 100 µM (inactive)	> 100 µM (inactive)	> 100 µM (inactive)	> 100 µM (inactive)	> 100 µM (inactive)	> 100 µM (inactive)	> 100 µM (inactive)	> 100 µM (inactive)	> 100 µM (inactive)	> 100 µM (inactive)	58.5 µM (inactive)		
CN(C)CCNC(=O)c1cccc2ccc(-c3ccc(-c4ccccc4)cc3)nc12	5.13 µM (inactive)	2.72 µM (inactive)	1.72 µM (inactive)	3.3 µM (inactive)	3.02 µM (inactive)	2.09 µM (inactive)		1.91 µM (inactive)	1.97 µM (inactive)	13.1 µM (inactive)	1.61 µM (inactive)	6.01 µM (inactive)	3.92 µM (inactive)	1.72 µM (inactive)	4.48 µM (inactive)	18.2 µM (inactive)	11.7 µM (inactive)	2.88 µM (inactive)		
CCN(CC)c1ccc(/N=C2/C=CC(=O)c3ncccc32)c(C)c1	11 µM (inactive)	2.09 µM (inactive)	2.47 µM (inactive)	20.2 µM (inactive)	6.75 µM (inactive)	13.8 µM (inactive)		2 µM (inactive)	3.82 µM (inactive)	18.5 µM (inactive)	6.43 µM (inactive)	3.33 µM (inactive)	12 µM (inactive)	5.53 µM (inactive)	16.3 µM (inactive)	5.06 µM (inactive)	16.6 µM (inactive)	14.8 µM (inactive)		
COC(=O)NC(=O)c1cn(CCCOC(=O)CCCCCCCCC(=O)OCCCn2cc(C(=O)NC(=O)OC)c(=O)[nH]c2=O)c(=O)[nH]c1=O	28.8 µM (inactive)	> 100 µM (inactive)	> 100 µM (inactive)	23.1 µM (inactive)	36.7 µM (inactive)	> 100 µM (inactive)		> 100 µM (inactive)	> 100 µM (inactive)	> 100 µM (inactive)	> 100 µM (inactive)	> 100 µM (inactive)	> 100 µM (inactive)	> 100 µM (inactive)	36.8 µM (inactive)	> 100 µM (inactive)	> 100 µM (inactive)	22.3 µM (inactive)		
CCOC(=O)CCn1cnc(N)n1	> 100 µM (inactive)	> 100 µM (inactive)	> 100 µM (inactive)	> 100 µM (inactive)	> 100 µM (inactive)	> 100 µM (inactive)		> 100 µM (inactive)	> 100 µM (inactive)	> 100 µM (inactive)	> 100 µM (inactive)	> 100 µM (inactive)	> 100 µM (inactive)	> 100 µM (inactive)	> 100 µM (inactive)	> 100 µM (inactive)	> 100 µM (inactive)	> 100 µM (inactive)		
CCOc1c(Br)cc(Br)cc1C=C(C#N)C#N		1.18 µM (inactive)	0.405 µM (active)	> 10 µM (inactive)	4.19 µM (inactive)	5.93 µM (inactive)	6.21 µM (inactive)	2.05 µM (inactive)	> 10 µM (inactive)	0.69 µM (active)	> 10 µM (inactive)	> 10 µM (inactive)		3.61 µM (inactive)	5.43 µM (inactive)	6.08 µM (inactive)		7.62 µM (inactive)	> 10 µM (inactive)	
CN(CCN(C)C(=O)CCOS(C)(=O)=O)C(=O)CCOS(C)(=O)=O	> 100 µM (inactive)	24.3 µM (inactive)	> 100 µM (inactive)	59 µM (inactive)	> 100 µM (inactive)	> 100 µM (inactive)		41 µM (inactive)	> 100 µM (inactive)	> 100 µM (inactive)	19.5 µM (inactive)	> 100 µM (inactive)	> 100 µM (inactive)	> 100 µM (inactive)	> 100 µM (inactive)	43.5 µM (inactive)		> 100 µM (inactive)		
CC(=O)NC(CCCCNCc1ccccc1)C(=O)NCc1ccccc1 (centres undefined)	> 100 µM (inactive)	> 100 µM (inactive)	> 100 µM (inactive)	> 100 µM (inactive)	> 100 µM (inactive)	> 100 µM (inactive)		> 100 µM (inactive)	> 100 µM (inactive)	> 100 µM (inactive)	> 100 µM (inactive)	> 100 µM (inactive)	> 100 µM (inactive)	> 100 µM (inactive)	> 100 µM (inactive)	> 100 µM (inactive)	> 100 µM (inactive)	30.5 µM (inactive)		
COC(=O)C(=O)CC(=O)CCn1ncc(Cl)c(Cl)c1=O	5.78 µM (inactive)	3.59 µM (inactive)	15.1 µM (inactive)	22.7 µM (inactive)	15.7 µM (inactive)	25.9 µM (inactive)		6.19 µM (inactive)	18.7 µM (inactive)	24.2 µM (inactive)	19.7 µM (inactive)	12.8 µM (inactive)	19.2 µM (inactive)	16.3 µM (inactive)	47.4 µM (inactive)	10 µM (inactive)	18.1 µM (inactive)	20.8 µM (inactive)		
CCOP(=O)(OCC)/C(C#N)=C/c1cnc(C)[nH]1	> 100 µM (inactive)	> 100 µM (inactive)	> 100 µM (inactive)	> 100 µM (inactive)	> 100 µM (inactive)	> 100 µM (inactive)	> 100 µM (inactive)	> 100 µM (inactive)	> 100 µM (inactive)	> 100 µM (inactive)	> 100 µM (inactive)	> 100 µM (inactive)	> 100 µM (inactive)	> 100 µM (inactive)	> 100 µM (inactive)	> 100 µM (inactive)	> 100 µM (inactive)	> 100 µM (inactive)		> 100 µM (inactive)
CCOC(=O)N1C(=O)C2C3C=CC(C2C1=O)C1C2C(=O)N(C(=O)OCC)C(=O)C2C31 (centres undefined)	> 100 µM (inactive)	> 93.1 µM (inactive)	> 39.5 µM (inactive)	> 100 µM (inactive)	> 100 µM (inactive)	> 100 µM (inactive)		> 100 µM (inactive)	> 100 µM (inactive)	> 100 µM (inactive)	> 42.7 µM (inactive)	> 100 µM (inactive)	> 100 µM (inactive)	> 100 µM (inactive)	> 100 µM (inactive)	> 100 µM (inactive)	> 100 µM (inactive)	> 92 µM (inactive)		
Cc1ccc(S(=O)(=O)N2CC(CCN)c3ccccc32)cc1 (centres undefined)	6.38 µM (inactive)	> 100 µM (inactive)	2.27 µM (inactive)	6.78 µM (inactive)	4.19 µM (inactive)	6.03 µM (inactive)	1.47 µM (inactive)	28 µM (inactive)	4 µM (inactive)	2.45 µM (inactive)	5.08 µM (inactive)	3.36 µM (inactive)	4.43 µM (inactive)	2.58 µM (inactive)	7.89 µM (inactive)	3.68 µM (inactive)	4.61 µM (inactive)	5.46 µM (inactive)		3.87 µM (inactive)
O=C(c1ccc(-c2ccccc2)cc1)N(Cc1cccnc1)C(=S)N(Cc1cccnc1)C(=O)c1ccc(-c2ccccc2)cc1	27.1 µM (inactive)	> 100 µM (inactive)	63.8 µM (inactive)	> 100 µM (inactive)	8.95 µM (inactive)	56.6 µM (inactive)	41.6 µM (inactive)	0.198 µM (active)	> 100 µM (inactive)	76.2 µM (inactive)	> 100 µM (inactive)	> 100 µM (inactive)	> 100 µM (inactive)	56 µM (inactive)	> 100 µM (inactive)	> 100 µM (inactive)	51.9 µM (inactive)			> 100 µM (inactive)
COC(=O)C1C(=O)O[C@@H](c2ccc(OC)cc2)C1C(=O)OC (some centres undefined)	> 100 µM (inactive)	> 100 µM (inactive)	> 100 µM (inactive)	> 100 µM (inactive)	> 100 µM (inactive)	> 100 µM (inactive)		> 100 µM (inactive)	> 100 µM (inactive)	> 100 µM (inactive)		> 100 µM (inactive)	> 100 µM (inactive)	> 100 µM (inactive)	> 100 µM (inactive)	> 100 µM (inactive)	> 100 µM (inactive)	> 100 µM (inactive)		
O=C(Nc1c(O)[nH]c(=S)[nH]c1=O)c1ccccc1	> 100 µM (inactive)	> 100 µM (inactive)	> 100 µM (inactive)	> 100 µM (inactive)	> 100 µM (inactive)	> 100 µM (inactive)		> 100 µM (inactive)	> 100 µM (inactive)	> 100 µM (inactive)	> 100 µM (inactive)	> 100 µM (inactive)	> 100 µM (inactive)	> 100 µM (inactive)	> 100 µM (inactive)	> 100 µM (inactive)	> 100 µM (inactive)	> 100 µM (inactive)		
